Experimental data reported in patent US4315014A, “Antibacterial amide compounds and pharmaceutical composition containing the same” (Warner-Lambert Company, priority 1980, dated 1982).
In brackets after ≈: the same amount, converted by molar mass.

Legend:
Type in all cases: cell-based
Staph. aureus S18713 = experiment: Minimal Inhibitory Concentration, Staph. aureus S18713; details: Staphylococcus aureus
[1] = tested on: Pseudomonas aeruginosa #28; experiment: Minimal Inhibitory Concentration, Pseudomonas aeruginosa #28
Entero. cloacae = experiment: Minimal Inhibitory Concentration, Entero. cloacae; details: Enterobacter cloacae
Serr. marces. = experiment: Minimal Inhibitory Concentration, Serr. marces.
Klebs. pneu. = experiment: Minimal Inhibitory Concentration, Klebs. pneu.

SMILES | MIC (Staph. aureus S18713) | MIC [1] | MIC (Entero. cloacae) | MIC (Serr. marces.) | MIC (Klebs. pneu.)
CC1(C)S[C@@H]2[C@H](NC(=O)[C@H](NC(=O)c3ccc(-c4ccc(NS(=O)(=O)CCc5ccncc5)cc4)[nH]c3=O)c3ccccc3)C(=O)N2[C@H]1C(=O)O [Example 8] | 100 µg/mL (≈ 137 µM) | 6.3 µg/mL (≈ 8.62 µM) | 6.3 µg/mL (≈ 8.62 µM) | 100 µg/mL (≈ 137 µM) | 3.1 µg/mL (≈ 4.24 µM)
CC1(C)S[C@@H]2[C@H](NC(=O)[C@H](NC(=O)c3ccc(-c4cccc(NS(=O)(=O)c5cccnc5)c4)[nH]c3=O)c3ccccc3)C(=O)N2[C@H]1C(=O)O [Example 10, N-[6-[3-(3-pyridinylsulfonylamino)phenyl]-1,2-dihydro-2-oxonicotinoyl]ampicillin] | > 200 µg/mL | 12.5 µg/mL (≈ 17.8 µM) | 12.5 µg/mL (≈ 17.8 µM) | 100 µg/mL (≈ 142 µM) | 6.3 µg/mL (≈ 8.96 µM)
CC1(C)S[C@@H]2[C@H](NC(=O)[C@H](NC(=O)c3ccc(-c4ccc(NS(=O)(=O)C(F)(F)F)cc4)[nH]c3=O)c3ccccc3)C(=O)N2[C@H]1C(=O)O [Example 5, N-[6-[4-(Trifluoromethylsulfonylamino)phenyl]-1,2-dihydro-2-oxonicotinoyl]ampicillin] | 200 µg/mL (≈ 288 µM) | 6.3 µg/mL (≈ 9.08 µM) | 6.3 µg/mL (≈ 9.08 µM) | 200 µg/mL (≈ 288 µM) | 3.1 µg/mL (≈ 4.47 µM)
CC1(C)S[C@@H]2[C@H](NC(=O)[C@H](NC(=O)c3ccc(-c4ccc(NS(C)(=O)=O)cc4)[nH]c3=O)c3ccc(O)cc3)C(=O)N2[C@H]1C(=O)O [Example 3] | 100 µg/mL (≈ 153 µM) | 1.6 µg/mL (≈ 2.44 µM) | 3.1 µg/mL (≈ 4.73 µM) | 100 µg/mL (≈ 153 µM) | 3.1 µg/mL (≈ 4.73 µM)
CC(=O)OCCCS(=O)(=O)Nc1ccc(-c2ccc(C(=O)N[C@@H](C(=O)N[C@@H]3C(=O)N4[C@@H]3SC(C)(C)[C@@H]4C(=O)O)c3ccccc3)c(=O)[nH]2)cc1 [Example 7, N-[6-[4-[3-(acetyloxy)propylsulfonylamino]phenyl]-1,2-dihydro-2-oxonicotinoyl]ampicillin] | 100 µg/mL (≈ 138 µM) | 6.3 µg/mL (≈ 8.68 µM) | 6.3 µg/mL (≈ 8.68 µM) | 100 µg/mL (≈ 138 µM) | 3.1 µg/mL (≈ 4.27 µM)
CC1(C)S[C@@H]2[C@H](NC(=O)[C@H](NC(=O)c3ccc(-c4ccc(NS(=O)(=O)c5cccnc5)cc4)[nH]c3=O)c3ccccc3)C(=O)N2[C@H]1C(=O)O [Example 9, N-[6-[4-(3-pyridinylsulfonylamino)phenyl]-1,2-dihydro-2-oxonicotinoyl]ampicillin] | 100 µg/mL (≈ 142 µM) | 12.5 µg/mL (≈ 17.8 µM) | 12.5 µg/mL (≈ 17.8 µM) | 100 µg/mL (≈ 142 µM) | 6.3 µg/mL (≈ 8.96 µM)
CC1(C)S[C@@H]2[C@H](NC(=O)[C@H](NC(=O)c3ccc(-c4cccc(NS(C)(=O)=O)c4)[nH]c3=O)c3ccccc3)C(=O)N2[C@H]1C(=O)O [Example 1, N-[6-[3-(Methylsulfonylamino)phenyl]-1,2-dihydro-2-oxonicotinoyl]ampicillin] | > 200 µg/mL | 12.5 µg/mL (≈ 19.5 µM) | 6.3 µg/mL (≈ 9.85 µM) | 25 µg/mL (≈ 39.1 µM) | 1.6 µg/mL (≈ 2.5 µM)
CCCS(=O)(=O)Nc1ccc(-c2ccc(C(=O)N[C@@H](C(=O)N[C@@H]3C(=O)N4[C@@H]3SC(C)(C)[C@@H]4C(=O)O)c3ccccc3)c(=O)[nH]2)cc1 [Example 4, N-[6-[4-(Propylsulfonylamino)phenyl]-1,2-dihydro-2-oxonictinoyl]ampicillin] | 100 µg/mL (≈ 150 µM) | 3.1 µg/mL (≈ 4.64 µM) | 6.3 µg/mL (≈ 9.43 µM) | 50 µg/mL (≈ 74.9 µM) | 3.1 µg/mL (≈ 4.64 µM)
CC1(C)S[C@@H]2[C@H](NC(=O)[C@H](NC(=O)c3ccc(-c4ccc(NS(=O)(=O)C(F)(F)F)cc4)[nH]c3=O)c3ccc(O)cc3)C(=O)N2[C@H]1C(=O)O [Example 6, N[6-[4-(Trifluoromethylsulfonylamino)phenyl]-1,2-dihydro-2-oxonicotinoyl]amoxicillin] | 25 µg/mL (≈ 35.2 µM) | 12.5 µg/mL (≈ 17.6 µM) | 6.3 µg/mL (≈ 8.88 µM) | 50 µg/mL (≈ 70.5 µM) | 25 µg/mL (≈ 35.2 µM)
CC1(C)S[C@@H]2[C@H](NC(=O)[C@H](NC(=O)c3ccc(-c4ccc(NS(C)(=O)=O)cc4)[nH]c3=O)c3ccccc3)C(=O)N2[C@H]1C(=O)O [Example 2, N-[6-[4-(Methylsulfonylamino)phenyl]-1,2-dihydro-2-oxonicotinoyl]ampicillin] | 100 µg/mL (≈ 156 µM) | 3.1 µg/mL (≈ 4.85 µM) | 6.3 µg/mL (≈ 9.85 µM) | 50 µg/mL (≈ 78.2 µM) | 3.1 µg/mL (≈ 4.85 µM)
